Data published in patent US20230197192A1, “SELECTING NEOANTIGENS FOR PERSONALIZED CANCER VACCINE” (AMAZON TECHNOLOGIES, INC., priority 2020, published 2023).
Where a SMILES comes first, the peptide text is derived from it. Where no end group is shown, it is not given here.

Assay: Visible dissolution of peptides in DMSO / 0.9% NaCl for pool formulation
Type: physicochemical
Details: not given
Experimental: Groups of peptides are selected and pooled. Up to four (4) pools with not more than (NMT) five (5) peptides in each pool were prepared. Each peptide was dissolved in 5.538% (v/v) DMSO followed by 0.9% NaCl solution, at a concentration of each peptide at 0.4158 mg/mL. Peptides which were visibly dissolved were accepted for that group's pool. Upon successful pooling of all peptides within a group, the pool was filtered through a 0.2 μm Nylon filter. Peptides were shipped in sterile tubes and labeled with Pool name, lot #, components, manufacturing data, quantity/concentration and storage conditions.
With TYPEADSFPSWAAAHRKGSS [DDDDD.20] the Solubility was “Clear”.

Same assay, conditions: Peptide Synthesis Engineering Run Batch for Sample GGGGG; visual appearance of the peptide solution (Clear / Semi Cloudy / Cloudy)
With `CC[C@H](C)[C@H](NC(=O)[C@H](C)NC(=O)CNC(=O)[C@H](CC(C)C)NC(=O)[C@H](CC(C)C)NC(=O)[C@H](CC(=O)O)NC(=O)[C@H](CS)NC(=O)[C@H](CO)NC(=O)[C@H](CCC(=O)O)NC(=O)[C@H](C)NC(=O)[C@@H]1CCCN1C(=O)[C@@H](N)CO)C(=O)N[C@@H](CCC(N)=O)C(=O)N[C@H](C(=O)N[C@@H](CS)C(=O)N[C@H](C(=O)N[C@@H](CCCNC(=N)N)C(=O)N[C@@H](CCCCN)C(=O)N[C@@H](CO)C(=O)N[C@@H](CC(C)C)C(=O)NCC(=O)O)[C@@H](C)CC)[C@@H](C)O` [GGGGG.11] (H-SPAESCDLLGAIQTCIRKSLG-OH; N-terminus and C-terminus assumed) the “Visual solubility (appearance of the peptide solution)” value (“Visual solubility” for short) was “Clear”. With VDLKFPASVPTGAQDLISKL [GGGGG.25] the “Visual solubility” value was “Clear”. In the case of STAPAEATLPKPGEAEAP [GGGGG.16], the “Visual solubility” value is reported as “Clear”. With RFIGPLPREGSVGSTSDYVSQS [GGGGG.22] the “Visual solubility” value was “Clear”. In the case of STAPAEATL [GGGGG.44], the “Visual solubility” value is reported as “Clear”. With FQSLCQAPPLLKDKVLTALE [GGGGG.8] the “Visual solubility” value was “Clear”. For GALPVASPASL [GGGGG.45], the “Visual solubility” value was “Clear”. In the case of AAIQEKKEI [GGGGG.39], the “Visual solubility” value is reported as “Clear”. For QAYNALTL [GGGGG.41], the “Visual solubility” value was “Clear”. With SAVMQEEI [GGGGG.38] the “Visual solubility” value was “Cloudy”. For LIKPPAHTSAILTVLR [GGGGG.30], the “Visual solubility” value was “Clear”. With VALSVRPI [GGGGG.37] the “Visual solubility” value was “Clear”. For RVLIPDLQL [GGGGG.42], the “Visual solubility” value was “Clear”. For YSGIQESSSASPLSIKKCPI [GGGGG.29], the “Visual solubility” value was “Clear”. For ARPPGGSGPLRVLIPDLQL [GGGGG.3], the “Visual solubility” value was “Clear”. With FETTTGFDPHSGTPLSDHEAL [GGGGG.7] the “Visual solubility” value was “Clear”. In the case of SAPGSSRLAA [GGGGG.46], the “Visual solubility” value is reported as “Clear”. In the case of SPRVAPGSAPPWPALRSLLH [GGGGG.1], the “Visual solubility” value is reported as “Clear”.

Same assay, conditions: Peptide synthesis engineering run batch for sample DDDDD_2020; appearance of the solution
In the case of NQPKIGGPLGTGAFEAPGFNTTTATLGF [DDDDD.4], the Solubility is reported as “Clear”. In the case of KNPQMGDPGSLQPKSAETMNNIDRLRME [DDDDD.6], the Solubility is reported as “Clear”. With AQSRSSPTL [DDDDD.36] the Solubility was “Clear”. With `CC(C)C[C@H](NC(=O)[C@@H](NC(=O)[C@H](Cc1c[nH]c2ccccc12)NC(=O)[C@H](C)NC(=O)[C@H](C)NC(=O)[C@@H](NC(=O)[C@H](Cc1ccccc1)NC(=O)[C@H](CCCCN)NC(=O)[C@H](C)N)C(C)C)[C@@H](C)O)C(=O)N[C@@H](CCCCN)C(=O)N[C@@H](C)C(=O)N[C@@H](C)C(=O)N[C@@H](C)C(=O)O` [DDDDD.46] the Solubility was “Clear”. With FGALHEDANKVIKPTSSNTA [DDDDD.5] the Solubility was “Clear”. For FEAPGFNTTTA [DDDDD.45], the Solubility was “Clear”. For QELSPEKLKSWGGSLLGPWLSSGLKPLK [DDDDD.18], the Solubility was “Clear”. For SQAGTVTL [DDDDD.31], the Solubility was “Clear”.

Same assay, conditions: Peptide synthesis engineering run batch for sample FFFFF; appearance of the solution
In the case of TGQDMLAL [FFFFF.36], the Solubility is reported as “Clear”. In the case of VGRAWDAITDHLVGLCISKSP [FFFFF.19], the Solubility is reported as “Clear”. For NSLTSSVL [FFFFF.45], the Solubility was “Clear”. With LGIGGLQDL [FFFFF.49] the Solubility was “Clear”. With RNLYISGFSLCFWLVLRRLVT [FFFFF.26] the Solubility was “Cloudy”. In the case of HKDAVTCVNFSSSGHLLASGSR [FFFFF.29], the Solubility is reported as “Clear”. With FLSPGQLLQEPRTSLLIINNT [FFFFF.20] the Solubility was “Cloudy”. For TPSAPEGYDLKIGLFLAPRRGSLPD [FFFFF.17], the Solubility was “Clear”. With LSPYPEHL [FFFFF.50] the Solubility was “Clear”. With LLLQEEEL [FFFFF.42] the Solubility was “Clear”. In the case of PTLPQPASHFSPPPPPPPLPP [FFFFF.5], the Solubility is reported as “Clear”.
